US9750254B2, “Agricultural or horticultural chemical, method of controlling plant diseases, and product for controlling plant diseases” (Kureha Corporation, priority 2013, dated 2017)

Legend:
Format in all cases: cell-based
Gaeumannomyces graminis = experiment: Test Example 2: in vitro antimicrobial activity test, colony diameter on PDA plate with chemicals, 20° C., three days
Description: On the other hand, Glomerella cingulata was punched out from the vicinity of a Glomerella cingulata colony that was cultured in advance on another plate culture medium free of the chemicals using a cork borer having a diameter of 4 mm, and inoculated on the PDA plate culture medium in which the chemicals were mixed. After culturing at 25° C. for seven days, the diameter of the grown colony was measured. […] Additionally, in the above formula, R represents a fungal growth inhibition rate (%), dc represents the diameter of a colony on an untreated plate, and dt represents the diameter of a colony on a chemical-treated plate. […] Meanwhile, Gaeumannomyces graminis was punched out from the periphery of a colony of Gaeumannomyces graminis using a cork borer having a diameter of 4 mm, and inoculated onto the PDA agar plates in which the chemical(s) was (were) mixed.

Glomerella cingulata = experiment: Test Example 1: in vitro antimicrobial activity test, colony diameter on PDA plate with chemicals, 25° C., seven days
Description: (§1) On the other hand, Glomerella cingulata was punched out from the vicinity of a Glomerella cingulata colony that was cultured in advance on another plate culture medium free of the chemicals using a cork borer having a diameter of 4 mm, and inoculated on the PDA plate culture medium in which the chemicals were mixed. After culturing at 25° C. for seven days, the diameter of the grown colony was measured. […] Additionally, in the above formula, R represents a fungal growth inhibition rate (%), dc represents the diameter of a colony on an untreated plate, and dt represents the diameter of a colony on a chemical-treated plate.

[1] = tested on: Pseudocercosporella herpotrichoides; experiment: Test Example 3: in vitro antimicrobial activity test, colony diameter on PDA plate with chemicals, 20° C., seven days
Description: as §1
(§2) Inhibition rate when used as a mixture (theoretical value)=α+(100−α)×β)/100 Note that, in the formula above, α and β respectively represent the inhibition rates of the compounds during single use of the compounds.
Pseudocercosporella herpotrichoides was punched out from the vicinity of a Pseudocercosporella herpotrichoides colony using a cork borer having a diameter of 4 mm, and inoculated on the PDA plate culture medium in which the chemicals were mixed. After culturing at 20° C. for seven days, the diameter of the grown colony was measured.

Septoria tritici = experiment: Test Example 4: in vitro antimicrobial activity test, colony diameter on PDA plate with chemicals, 25° C., 14 days
Description: as §1, §2
In this test example, the antimicrobial action of a mixed formulation of compound (1) and trifloxystrobin against Septoria tritici was tested.
Septoria tritici was punched out from the vicinity of a Septoria tritici colony that was cultured in advance on another plate culture medium free of the chemicals using a cork borer having a diameter of 4 mm, and inoculated on the PDA plate culture medium in which the chemicals were mixed.

Rhynchosporium secalis = experiment: Test Example 5: in vitro antimicrobial activity test, colony diameter on PDA plate with chemicals, 25° C., 14 days
Description: Additionally, in the above formula, R represents a fungal growth inhibition rate (%), dc represents the diameter of a colony on an untreated plate, and dt represents the diameter of a colony on a chemical-treated plate. […] Rhynchosporium secalis was punched out from the vicinity of a Rhynchosporium secalis colony that was cultured in advance on another plate culture medium free of the chemicals using a cork borer having a diameter of 4 mm, and inoculated on the PDA plate culture medium in which the chemicals were mixed. After culturing at 25° C. for 14 days, the diameter of the grown colony was measured.

Pyrenophora graminea [2] = experiment: Test Example 7: in vitro antimicrobial activity test (dimoxystrobin), same manner as Test Example 6; settings: Compound (1) 0 ppm
Description: as §1, §2
(§3) Pyrenophora graminea was punched out from the vicinity of a Pyrenophora graminea colony that was cultured in advance on another plate culture medium free of the chemicals using a cork borer having a diameter of 4 mm, and inoculated on the PDA plate culture medium in which the chemicals were mixed. After culturing at 25° C. for 3 days, the diameter of the grown colony was measured.

Pyrenophora graminea [3] = experiment: Test Example 6: in vitro antimicrobial activity test (picoxystrobin), colony diameter on PDA plate with chemicals, 25° C., 3 days; settings: Compound (1) 0 ppm
Description: as §1, §2, §3

[4] = Oculimacula yallundae, read-out: Fungal growth inhibition rate (%) Measured value
[5] = Colletotrichum gloeosporioides, read-out: Fungal growth inhibition rate (%) Measured value
[6] = Zymoseptoria tritici, read-out: Fungal growth inhibition rate (%) Measured value

SMILES: CO/C=C(/C(=O)OC)c1ccccc1Oc1cc(Oc2ccccc2C#N)ncn1 [Azoxystrobin, azoxystrobin]
- Fungal growth inhibition rate (%) Measured value (Gaeumannomyces graminis; Compound (1) 0 ppm, Azoxystrobin 0.010 ppm): 35%
- Fungal growth inhibition rate (%) Measured value (Gaeumannomyces graminis; Compound (1) 0 ppm, Azoxystrobin 2.5 ppm): 98%

SMILES: COC(=O)C1(C)CCC(Cc2ccc(Cl)cc2)C1(O)Cn1cncn1 (centres unmarked) [Compound (1)]
- Fungal growth inhibition rate (%) Measured value (Glomerella cingulata; Compound (1) 0.313 ppm, Pyraclostrobin 0 ppm): 45%
- Fungal growth inhibition rate (%) Measured value (Gaeumannomyces graminis; Compound (1) 0.078 ppm, Azoxystrobin 0 ppm): 0%
- Fungal growth inhibition rate (%) Measured value ([1]; Compound (1) 0.078 ppm, Kresoxim-methyl 0 ppm): 7%
- Fungal growth inhibition rate (%) Measured value (Septoria tritici; Compound (1) 0.02 ppm, Trifloxystrobin 0 ppm): 9%
- Fungal growth inhibition rate (%) Measured value (Rhynchosporium secalis; Compound (1) 1.25 ppm, Fluoxastrobin 0 ppm): 87%

SMILES: CNC(=O)/C(=N/OC)c1ccccc1COc1cc(C)ccc1C [Dimoxystrobin, dimoxystrobin]
- Fungal growth inhibition rate (%) Measured value (Pyrenophora graminea [2]; Dimoxystrobin 0.005 ppm): 28%
- Fungal growth inhibition rate (%) Measured value (Pyrenophora graminea [2]; Dimoxystrobin 0.02 ppm): 55%
- Fungal growth inhibition rate (%) Measured value (Pyrenophora graminea [2]; Dimoxystrobin 0.08 ppm): 71%

SMILES: CO/N=C(/C1=NOCCO1)c1ccccc1Oc1ncnc(Oc2ccccc2Cl)c1F [Fluoxastrobin, fluoxastrobin]
- inhibition at 0.005 ppm (Rhynchosporium secalis; Rhynchosporium secalis, read-out: Fungal growth inhibition rate (%) Measured value): 25%

SMILES: CO/N=C(/C(=O)OC)c1ccccc1COc1ccccc1C [Kresoxim-methyl, kresoxim-methyl]
- inhibition at 0.02 ppm [1, 4]: 21%
- inhibition at 0.08 ppm [1, 4]: 34%
- inhibition at 0.31 ppm [1, 4]: 60%
- inhibition at 1.25 ppm [1, 4]: 90%

SMILES: CO/C=C(/C(=O)OC)c1ccccc1COc1cccc(C(F)(F)F)n1 [Picoxystrobin, picoxystrobin]
- Fungal growth inhibition rate (%) Measured value (Pyrenophora graminea [3]; Picoxystrobin 0.005 ppm): 36%
- Fungal growth inhibition rate (%) Measured value (Pyrenophora graminea [3]; Picoxystrobin 0.02 ppm): 57%
- Fungal growth inhibition rate (%) Measured value (Pyrenophora graminea [3]; Picoxystrobin 0.08 ppm): 71%
- Fungal growth inhibition rate (%) Measured value (Pyrenophora graminea [3]; Picoxystrobin 0.31 ppm): 87%
- Fungal growth inhibition rate (%) Measured value (Pyrenophora graminea [3]; Picoxystrobin 1.25 ppm): 94%

SMILES: COC(=O)N(OC)c1ccccc1COc1ccn(-c2ccc(Cl)cc2)n1 [Pyraclostrobin, pyraclostrobin]
- inhibition at 0.1575 ppm (Glomerella cingulata; [5]): 73%
- inhibition at 0.63 ppm (Glomerella cingulata; [5]): 89%
- inhibition at 10 ppm (Glomerella cingulata; [5]): 100%

SMILES: CON=C(C(=O)OC)c1ccccc1CON=C(C)c1cccc(C(F)(F)F)c1 [Trifloxystrobin, trifloxystrobin]
- inhibition at 0.02 ppm (Septoria tritici; [6]): 82%
- inhibition at 0.08 ppm (Septoria tritici; [6]): 84%
- inhibition at 0.31 ppm (Septoria tritici; [6]): 86%
